Results reported in patent US20230263822A1, “MODULATION OF FACTOR 11 EXPRESSION” (Ionis Pharmaceuticals, Inc., priority 2008, published 2023).
Strand notation (5' to 3'): a small letter for the sugar, then the base; units joined by * are phosphorothioate-linked, units joined directly phosphodiester-linked; [ ] holds rarer units or linkages, { } end groups; capitals alone tell only the bases. e = 2'-O-(2-methoxyethyl) (MOE); [5mC] = 5-methylcytosine; d = 2'-deoxy (DNA)

System: human Factor 11 mRNA
Experiment: Antisense inhibition of human Factor 11 in HepG2 cells, lipofectin, 75 nM (Example 1)
Format: cell-based
Details: 75 nM antisense oligonucleotide, ~24 h, relative to untreated control cells, gapmers targeted to SEQ ID NO: 1
Procedure: Antisense oligonucleotides targeted to a Factor 11 nucleic acid were tested for their effects on Factor 11 mRNA in vitro. Cultured HepG2 cells at a density of 10,000 cells per well were transfected using lipofectin reagent with 75 nM antisense oligonucleotide. After a treatment period of approximately 24 hours, RNA was isolated from the cells and Factor 11 mRNA levels were measured by quantitative real time PCR. Factor 11 mRNA levels were adjusted according to total RNA content, as measured by RIBOGREEN. Results are presented as percent inhibition of Factor 11, relative to untreated control cells.
The chimeric antisense oligonucleotides in Tables 1 and 2 were designed as 5-10-5 MOE gapmers. The gapmers are 20 nucleotides in length, wherein the central gap segment is comprised of 10 2′-deoxynucleotides and is flanked on both sides (in the 5′ and 3′ directions) by wings comprising 5 nucleotides each. Each nucleotide in the 5′ wing segment and each nucleotide in the 3′ wing segment has a 2′-MOE modification. The internucleoside linkages throughout each gapmer are phosphorothioate (P=S) linkages. All cytidine residues throughout each gapmer are 5-methylcytidines. “Target start site” indicates the 5′-most nucleotide to which the gapmer is targeted. “Target stop site” indicates the 3′-most nucleotide to which the gapmer is targeted. Each gapmer listed in Table 1 is targeted to SEQ TD NO: 1 (GENBANK Accession No. NM_000128.3) and each gapmer listed in Table 2 is targeted to SEQ TD NO: 2 (GENBANK Accession No. NT_022792.17, truncated from 19598000 to 19624000).

413466 (antisense eA*e[5mC]*eA*eT*eA*dA*dA*dT*dG*dT*d[5mC]*dT*dT*dT*dG*eT*eT*eG*e[5mC]*eA) [compound 413466]
% inhibition: 79%

413470 (antisense eG*eT*eT*eA*eT*dA*dG*dT*dT*dT*dA*dT*dG*d[5mC]*d[5mC]*e[5mC]*eT*eT*e[5mC]*eA) [compound 413470]
% inhibition: 72%

413471 (antisense eT*e[5mC]*eA*eG*eT*dA*dG*dA*d[5mC]*dA*dA*dA*dT*dG*dT*eT*eA*e[5mC]*eG*eA) [compound 413471]
% inhibition: 67%

413472 (antisense eT*eG*eG*eG*eT*dG*dT*dG*d[5mC]*dT*dT*d[5mC]*dA*dG*dT*eA*eG*eA*e[5mC]*eA) [compound 413472]
% inhibition: 99%

413473 (antisense eA*eG*e[5mC]*e[5mC]*eA*dG*dA*dT*dT*dA*dG*dA*dA*dA*dG*eT*eG*e[5mC]*eA*e[5mC]) [compound 413473]
% inhibition: 80%

413475 (antisense eG*e[5mC]*e[5mC]*eA*eT*dT*d[5mC]*d[5mC]*dT*dG*dG*dG*dA*dA*dA*eA*eG*eA*eA*eG) [compound 413475]
% inhibition: 80%

413477 (antisense eA*e[5mC]*eT*eG*eA*dA*dA*d[5mC]*d[5mC]*dA*dG*dA*dA*dA*dG*eA*eG*e[5mC]*eT*eT) [compound 413477]
% inhibition: 54%

413478 (antisense eA*eG*eA*eA*eT*dG*dG*d[5mC]*dA*dG*dA*dA*d[5mC]*dA*d[5mC]*eT*eG*eG*eG*eA) [compound 413478]
% inhibition: 53%

413479 (antisense eT*eG*eT*e[5mC]*eA*dT*dG*dG*dT*dA*dA*dA*dA*dT*dG*eA*eA*eG*eA*eA) [compound 413479]
% inhibition: 40%

413480 (antisense eA*eA*eG*eA*eA*dA*dT*d[5mC]*dA*dG*dT*dG*dT*d[5mC]*dA*eT*eG*eG*eT*eA) [compound 413480]
% inhibition: 71%

413483 (antisense eA*eA*e[5mC]*eT*eG*dG*d[5mC]*dA*dG*d[5mC]*dG*dG*dA*d[5mC]*dG*eG*e[5mC]*eA*eT*eT) [compound 413483]
% inhibition: 78%

413484 (antisense e[5mC]*e[5mC]*eT*eT*eA*dA*dT*dG*dT*dG*dT*dA*dT*d[5mC]*d[5mC]*eA*eG*eA*eG*eA) [compound 413484]
% inhibition: 74%

413485 (antisense eT*eG*eG*eT*eG*dG*dT*dA*d[5mC]*dA*d[5mC]*dT*d[5mC]*dA*dT*eT*eA*eT*e[5mC]*e[5mC]) [compound 413485]
% inhibition: 68%

413486 (antisense eG*eG*e[5mC]*eT*eT*dG*dA*dT*dT*dT*dT*dG*dG*dT*dG*eG*eT*eA*e[5mC]*eA) [compound 413486]
% inhibition: 83%

413487 (antisense eA*eA*e[5mC]*eG*eA*dT*d[5mC]*d[5mC]*dT*dG*dG*dG*d[5mC]*dT*dT*eG*eA*eT*eT*eT) [compound 413487]
% inhibition: 57%

413488 (antisense eA*e[5mC]*eA*eG*eG*dT*dG*dT*d[5mC]*dT*d[5mC]*dT*dG*dA*dG*eT*eG*eG*eG*eT) [compound 413488]
% inhibition: 49%

413489 (antisense e[5mC]*eA*e[5mC]*eT*eG*dG*dT*dT*dT*d[5mC]*d[5mC]*dA*dA*dT*dG*eA*eT*eG*eG*eA) [compound 413489]
% inhibition: 68%

413490 (antisense e[5mC]*eT*eA*e[5mC]*e[5mC]*d[5mC]*d[5mC]*dA*dT*dA*dG*dA*dA*dA*d[5mC]*eA*eG*eT*eG*eA) [compound 413490]
% inhibition: 57%

413491 (antisense eT*eT*eA*eG*eG*dT*dG*dA*d[5mC]*dT*d[5mC]*dT*dA*d[5mC]*d[5mC]*e[5mC]*e[5mC]*eA*eT*eA) [compound 413491]
% inhibition: 73%
